Consider seven molecules from patent US20250195393A1, “COSMETIC COMPOSITION COMPRISING SKIN ACTIVE AGENT” (priority 2023, published 2025).

Like-named read-outs stand apart in the source and are kept apart here.

Series [1] can be described thus: Hansen Solubility Parameters (D, P, H) and distance Ra of solvents (b). The text has this: The oil phase of the emulsion includes the hydrophobic polymer of (a) dissolved in one or more solvents capable of solubilizing the hydrophobic polymer. The one or more solvent may include one or more solvents used to generate or solubilize the hydrophobic polymer, e.g., 2,2,4-trimethyl-1,3-pentanediol-monoisobutyrate. The one or more solvents may be a single solvent or a plurality of solvents.
[formula] • wherein • D1 is 16.8 MPa^0.5, • P1 is 4.8 MPa^0.5, and • H1 is 13.0 MPa^0.5.
In a preferred embodiment, the one or more solvents have a dispersion component (D), a polar component (P), a hydrogen bonding component (H), and a distance (Ra) of less than or equal to 9.9 MPa^0.5 per Hansen Solubility Parameters, wherein the distance (Ra) is defined by formula (I):
[formula] • wherein • D1 is 16.4 MPa^0.5, • P1 is 5.0 MPa^0.5, and • H1 is 11.7 MPa^0.5.
The solvent may be an oil. The term “oil” is intended to mean a non-aqueous compound, non-miscible in water, and liquid at 25° C. and atmospheric pressure (760 mmHg; 1.013×10^5 Pa). […] The solvents may include acetone. The solvents may include oleic acid. The solvents may include an oleic acid containing oil (such as a vegetable oil).

For series [2] the following is noted: Hansen Solubility Parameters; cited from earlier work.

Turning to `CC(C)=O` [Acetone], in series [1] (distance per formula (I) with D1 16.4, P1 5.0, H1 11.7, preferred <= 9.9), the “Ra (Preferred Range)” value is listed as 7.38 MPa^0.5. Further, the “Ra (Allowable Range)” value in series [1] (distance per formula (I) with D1 16.8, P1 4.8, H1 13.0, allowable <= 13.4) was determined as 8.61 MPa^0.5. In series [2], the “D (dispersion component)” value is listed as 15.5 MPa^0.5, the “H (hydrogen bonding component)” value is 7 MPa^0.5 and the “P (polar component)” value is recorded as 10.4 MPa^0.5.
Take `CCO` [Ethanol]: in series [1], the “Ra (Allowable Range)” value turned out to be 7.81 MPa^0.5 and the “Ra (Preferred Range)” value was 8.67 MPa^0.5. Further, in series [2], the “D (dispersion component)” value is 15.8 MPa^0.5, the “H (hydrogen bonding component)” value is 19.4 MPa^0.5 and the “P (polar component)” value is 8.8 MPa^0.5.
For the molecule `CC(C)O` [Isopropyl Alcohol], in series [1], the “Ra (Allowable Range)” value worked out at 7.02 MPa^0.5 and the “Ra (Preferred Range)” value amounted to 5.54 MPa^0.5. Besides, in series [2], the “D (dispersion component)” value was 15.8 MPa^0.5, the “H (hydrogen bonding component)” value is 6.4 MPa^0.5 and the “P (polar component)” value is recorded as 6.1 MPa^0.5.
On to `CCCCCCCCCCCCCC(=O)OC(C)C` [Isopropyl Myristate], for which, in series [1], the “Ra (Allowable Range)” value is on record as 10.70 MPa^0.5 and the “Ra (Preferred Range)” value is reported as 9.41 MPa^0.5. Moreover, in series [2], the “D (dispersion component)” value is 15.9 MPa^0.5, the “H (hydrogen bonding component)” value is 2.8 MPa^0.5 and the “P (polar component)” value was 2.1 MPa^0.5.
On to `CCCCCCCCCCC(CO)CCCCCCCC` (centres unmarked) [Octyldodecanol], for which, in series [1], the “Ra (Allowable Range)” value worked out at 6.33 MPa^0.5 and the “Ra (Preferred Range)” value is given as 5.17 MPa^0.5. Also, in series [2], the “D (dispersion component)” value is listed as 16.1 MPa^0.5, the “H (hydrogen bonding component)” value is 7.4 MPa^0.5 and the “P (polar component)” value was 2.2 MPa^0.5.
As for `CCCCCCCC/C=C\CCCCCCCC(=O)O` [Oleic Acid], in series [1], the “Ra (Allowable Range)” value was found to be 7.27 MPa^0.5 and the “Ra (Preferred Range)” value is listed as 5.98 MPa^0.5. Further, in series [2], the “D (dispersion component)” value is 16 MPa^0.5, the “H (hydrogen bonding component)” value is 6.2 MPa^0.5 and the “P (polar component)” value is given as 2.8 MPa^0.5.
`OCCOc1ccccc1` [Phenoxyethanol]: in series [1], the “Ra (Allowable Range)” value turned out to be 2.55 MPa^0.5 and the “Ra (Preferred Range)” value was 3.88 MPa^0.5.
